What was measured:
[1] = tested on: endocrine (androgenic/estrogenic) activity; settings: cited from earlier work
[2] = oral and dermal routes; cited from earlier work
[3] = laboratory animals; cited from earlier work
IL-18 = assay: IL18/Baseline, skin sensitization potential in HEK; format: cell-based, human; settings: HEK cultures, positive control
Experimental: It is possible for a test article to not be cytotoxic, and yet be unsafe due to provoking an allergic reaction upon skin contact. Typically, initial exposure to an allergen sensitizes the immune system, and following exposures cause an allergic response. […] We therefore evaluated IL-18 production in HEK treated with test articles to determine their sensitization potential.
Normal human adult epidermal keratinocytes (HEK) were cultured as described in Example 6 above. […] The cell lysates were collected, and IL-18 was quantified using Human IL-18 ELISA Kit (Catalog #7620, produced by MBL International Co., Woburn, Mass., USA). […] Fold changes of IL-18 levels between test articles and respective vehicle controls were calculated and compared to pPD (positive control). […]

| Compound | Anti-estrogenic activity (in words) [1] | Anti-androgenic activity (in words) ([1]; receptor binding assay) | Estrogenic activity (in words) ([1]; receptor binding assay) | Absorption (in words) [2] | Hormonal activity (in words) [3] | IL-18 induction compared to vehicle control (in words) (IL-18) |
| --- | --- | --- | --- | --- | --- | --- |
| COc1ccc(C(=O)c2ccccc2)c(O)c1 [BP-3, Benzophenone-3] | anti-estrogenic activity | strong anti-androgenic | weak estrogenic | rapidly absorbed via oral and dermal routes | weak hormonal activity |  |
| Nc1ccc(N)cc1 [benchmark sensitizer, para-phenylenediamine] |  |  |  |  |  | significantly induced IL-18 |

Source: US11000056B2, “Bioactive serum fraction from achachairu (Garcinia humilis) which is free of benzophenone and proteins” (ISP Investments LLC, priority 2015, dated 2021)
